{
  "source": "ChEMBL document CHEMBL3044633",
  "about": "“Synthesis and Insecticidal Activity of 3, 5-Dimethylbenzoyl Moiety Modified Analogues of N-tert-Butyl-N-(4-ethylbenzoyl)-3, 5-dimethylbenzohydrazide” (2002)",
  "format_in_all_cases": "functional",
  "conditions_in_all_cases": "foliar, 120 h",
  "key": {"[1]": {"tested_on": "Spodoptera litura", "assay": "Insecticidal activity against the Spodoptera litura larvae in compound treated cabbage leaves assessed as mortality at 200 ppm measured after 5 days by leaf dipping method"}, "[2]": {"tested_on": "Spodoptera litura", "assay": "Insecticidal activity against the Spodoptera litura larvae in compound treated cabbage leaves assessed as mortality at 50 ppm measured after 5 days by leaf dipping method"}, "[3]": {"tested_on": "Spodoptera litura", "assay": "Insecticidal activity against the Spodoptera litura larvae in compound treated cabbage leaves assessed as mortality at 12.5 ppm measured after 5 days by leaf dipping method"}, "[4]": {"tested_on": "Spodoptera litura", "assay": "Insecticidal activity against the Spodoptera litura larvae in compound treated cabbage leaves assessed as mortality at 3.1 ppm measured after 5 days by leaf dipping method"}},
  "data": [
    {"smiles": "CCc1ccc(C(=O)NN(C(=O)c2ccc3ocnc3c2)C(C)(C)C)cc1", "values": [
      {"measurement": "mortality at 200 ppm", "setting": "[1]", "value": 5, "unit": "%"}
    ]},
    {"smiles": "CCc1ccc(C(=O)NN(C(=O)c2ccc3ncoc3c2)C(C)(C)C)cc1", "values": [
      {"measurement": "mortality at 200 ppm", "setting": "[1]", "value": 1, "unit": "%"}
    ]},
    {"smiles": "CCc1ccc(C(=O)NN(C(=O)c2cc(C)cc(C(F)F)c2)C(C)(C)C)cc1", "values": [
      {"measurement": "mortality at 50 ppm", "setting": "[2]", "value": 10, "unit": "%"},
      {"measurement": "mortality at 200 ppm", "setting": "[1]", "value": 10, "unit": "%"},
      {"measurement": "mortality at 12.5 ppm", "setting": "[3]", "value": 8, "unit": "%"}
    ]},
    {"smiles": "CCc1ccc(C(=O)NN(C(=O)c2ccc3c(c2)OCCO3)C(C)(C)C)cc1", "values": [
      {"measurement": "mortality at 200 ppm", "setting": "[1]", "value": 0, "unit": "%"}
    ]},
    {"smiles": "C=Cc1cc(C)cc(C(=O)N(NC(=O)c2ccc(CC)cc2)C(C)(C)C)c1", "values": [
      {"measurement": "mortality at 50 ppm", "setting": "[2]", "value": 7, "unit": "%"},
      {"measurement": "mortality at 200 ppm", "setting": "[1]", "value": 10, "unit": "%"},
      {"measurement": "mortality at 12.5 ppm", "setting": "[3]", "value": 1, "unit": "%"}
    ]},
    {"smiles": "CCc1ccc(C(=O)NN(C(=O)c2cc(C)cc(C=O)c2)C(C)(C)C)cc1", "values": [
      {"measurement": "mortality at 200 ppm", "setting": "[1]", "value": 0, "unit": "%"}
    ]},
    {"smiles": "CCc1ccc(C(=O)NN(C(=O)c2cc(C)cc(CF)c2)C(C)(C)C)cc1", "values": [
      {"measurement": "mortality at 50 ppm", "setting": "[2]", "value": 10, "unit": "%"},
      {"measurement": "mortality at 200 ppm", "setting": "[1]", "value": 10, "unit": "%"},
      {"measurement": "mortality at 12.5 ppm", "setting": "[3]", "value": 5, "unit": "%"}
    ]},
    {"smiles": "CCc1ccc(C(=O)NN(C(=O)c2cc(C)cc(CCl)c2)C(C)(C)C)cc1", "values": [
      {"measurement": "mortality at 50 ppm", "setting": "[2]", "value": 1, "unit": "%"},
      {"measurement": "mortality at 200 ppm", "setting": "[1]", "value": 7, "unit": "%"}
    ]},
    {"smiles": "CCc1ccc(C(=O)NN(C(=O)c2cc(C)cc(CO)c2)C(C)(C)C)cc1", "values": [
      {"measurement": "mortality at 200 ppm", "setting": "[1]", "value": 0, "unit": "%"}
    ]},
    {"smiles": "CCc1ccc(C(=O)NN(C(=O)c2cc(C)cc(CO[Si](C)(C)C(C)(C)C)c2)C(C)(C)C)cc1", "values": [
      {"measurement": "mortality at 200 ppm", "setting": "[1]", "value": 0, "unit": "%"}
    ]},
    {"smiles": "CCc1ccc(C(=O)NN(C(=O)c2cc(C)cc(COC)c2)C(C)(C)C)cc1", "values": [
      {"measurement": "mortality at 50 ppm", "setting": "[2]", "value": 5, "unit": "%"},
      {"measurement": "mortality at 200 ppm", "setting": "[1]", "value": 9, "unit": "%"}
    ]},
    {"smiles": "CCc1ccc(C(=O)NNC(=O)C2CC(C)CC(C)C2)cc1", "note": "(centres undefined)", "values": [
      {"measurement": "mortality at 50 ppm", "setting": "[2]", "value": 0, "unit": "%"},
      {"measurement": "mortality at 200 ppm", "setting": "[1]", "value": 1, "unit": "%"}
    ]},
    {"smiles": "CCc1ccc(C(=O)NN(C(=O)C2C=C(C)CC(C)=C2)C(C)(C)C)cc1", "values": [
      {"measurement": "mortality at 50 ppm", "setting": "[2]", "value": 10, "unit": "%"},
      {"measurement": "mortality at 200 ppm", "setting": "[1]", "value": 10, "unit": "%"},
      {"measurement": "mortality at 12.5 ppm", "setting": "[3]", "value": 4, "unit": "%"}
    ]},
    {"smiles": "CCCCOCc1cc(C)cc(C(=O)N(NC(=O)c2ccc(CC)cc2)C(C)(C)C)c1", "values": [
      {"measurement": "mortality at 200 ppm", "setting": "[1]", "value": 0, "unit": "%"}
    ]},
    {"smiles": "CCc1ccc(C(=O)NN(C(=O)c2cc(C)cc(C)c2)C(C)(C)C)cc1", "note": "[TEBUFENOZIDE]", "values": [
      {"measurement": "mortality at 50 ppm", "setting": "[2]", "value": 10, "unit": "%"},
      {"measurement": "mortality at 200 ppm", "setting": "[1]", "value": 10, "unit": "%"},
      {"measurement": "mortality at 12.5 ppm", "setting": "[3]", "value": 10, "unit": "%"},
      {"measurement": "mortality at 3.1 ppm", "setting": "[4]", "value": 3, "unit": "%"}
    ]}
  ]
}
